Test results from patent publication US8835467B2, “SIR2 regulation” (Albert Einstein College of Medicine of Yeshiva University, priority 2003, dated 2014).

Experiments:
[1] = molecular target: T1, Bacterial SIR2Af2 (Archaeoglobus fulgidus, UniProt O30124); assay: SIR2 deacetylation assay (p53 peptide, HPLC of ADPR and 3′-O-acetyl-ADPR); format: biochemical, Archeaglobus fulgidus
T1 construct: made in house
T1 sequence (O30124 1-253): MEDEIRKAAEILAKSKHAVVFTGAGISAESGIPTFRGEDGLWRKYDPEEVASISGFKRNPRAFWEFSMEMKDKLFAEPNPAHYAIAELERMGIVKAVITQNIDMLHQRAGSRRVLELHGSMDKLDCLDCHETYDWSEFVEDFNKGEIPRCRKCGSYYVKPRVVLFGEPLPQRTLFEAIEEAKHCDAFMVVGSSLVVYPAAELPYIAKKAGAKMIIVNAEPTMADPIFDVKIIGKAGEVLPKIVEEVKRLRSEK
Method: After 2 hours, aliquots of 10 μL removed at 0, 30, 60, 90 and 120 min. Each aliquot was combined with 50 μL 50 mM ammonium acetate pH 5.0 to quench and assayed by HPLC for deacetylation products and NAD^+. The chromatograms (260 nm) were obtained using 50 mM ammonium acetate pH 5.0 as eluant on a semi-preparative Waters C-18 column (2.0 mL/min flow rate). Peaks for ADPR and 3′-O-Acetyl-ADPR were quantified by integration. The peak for NAD^+ was collected and radiation counted. […] Plots of deacetylation rate versus nicotinamide were fit to the equations described in the text.
Reactions were as above but base reactions contained 5 mM of pyrazinamide, isonicotinamide, thionicotinamide, or benzamide. Reactions were carried out (2 hours for AF2 and yeast enzymes and 3 hours for mouse enzyme) at 37° C. and quenched by addition of 80 μL 50 mM ammonium acetate pH 5.0. Product formation was quantified by HPLC. Thionicotinamide-NAD^+ was synthesized by CD38. Rates were compared with controls lacking added base.

[2] = molecular target: T2, Yeast Sir2 (Saccharomyces cerevisiae, UniProt P06700); assay: Sir2 catalyzed deacetylation of H4 N-terminal peptide; format: biochemical
Method: (§1) Measurements were performed by methods described in Sauve and Schramm (2003) with the H4N-terminal peptide (AGG(AcK)GG(AcK)GMG(AcK)VGA(AcK)RHSC) (Imai et al., 2000) as substrate.

[3] = molecular target: T2, Yeast Sir2; assay: Sir2 catalyzed base exchange with H4 N-terminal peptide; format: biochemical
Method: as §1

[4] = system: Sir2-dependent transcriptional silencing at the silent mating-type loci (HMR, HML); assay: Silent mating-type locus reporter silencing, spot assay; format: cell-based, yeast
Method: (§2) The photographs were taken after 2 to 3 days incubation. […] Isogenic strains UCC4562 (DOT1) and UCC4554 (dot1Δ) (Singer et al., 1998) are shown in each panel (top and bottom rows, respectively). […] The phenotype of strain CCFY10028 (top row) is compared to an isogenic sir2 derivative (bottom row). The sir2 deletion strain was generated by PCR-mediated gene disruption using a Nat-MX selectable marker (Tong et al., 2004).
(§3) The deletion strains were generated by PCR-mediated gene disruption using a Nat-MX selectable marker (Tong et al., 2004). Silencing at TEL-VR::URA3 is reported by survival on FOA-containing media and at HMR::TRP1 is detected by reduced growth on media lacking tryptophan.
The effect of isonicotinamide on Sir2 activity at the silent mating-type loci was measured in an HMR: TRP1 strain by growth on medium lacking tryptophan (FIG. 8b). Silencing of TRP1 decreases growth on Trp^− media.

[5] = system: Sir2-dependent transcriptional silencing at telomeres; assay: Telomeric reporter gene silencing, serial dilution spot assay; format: cell-based, yeast
Method: as §2, §3
We examined the effect of isonicotinamide on the expression of reporter genes integrated at each of the chromosomal loci that are subject to Sir2-dependent transcriptional silencing. Silencing of a telomeric URA3 gene (TEL-VIIL-URA3) confers resistance to 5-fluoroorotic acid (5-FOA). […] In this strain, silencing is reduced by dispersion of the Sir proteins from the telomeres (van Leeuwen et al., 2002).

[6] = molecular target: T3, Yeast SIR2p (Saccharomyces cerevisiae, UniProt P06700); assay: SIR2 nicotinamide base-exchange assay (p53 peptide, HPLC/14C); format: biochemical; conditions: pH 7.6; read-out: Inhibition of exchange rate (%) yeast
T3 construct: made in house
Method: After 2 hours, aliquots of 10 μL removed at 0, 30, 60, 90 and 120 min. Each aliquot was combined with 50 μL 50 mM ammonium acetate pH 5.0 to quench and assayed by HPLC for deacetylation products and NAD^+. The chromatograms (260 nm) were obtained using 50 mM ammonium acetate pH 5.0 as eluant on a semi-preparative Waters C-18 column (2.0 mL/min flow rate). Peaks for ADPR and 3′-O-Acetyl-ADPR were quantified by integration. The peak for NAD^+ was collected and radiation counted.

[7] = system: Sir2-dependent transcriptional silencing at the rDNA locus; assay: rDNA locus URA3 silencing on FOA-containing media; format: cell-based, yeast; conditions: RDN1::URA3 strain; 25 mM isonicotinamide
Method: as §2, with “Ten-fold serial dilutions of yeast strains were spotted onto control (YPD) or selective media (vanLeeuwen and Gottschling, 2002). The photographs” for “The photographs”
Sir2 also localizes to the nucleolus where it functions to propagate a specialized chromatin structure on the rDNA (Rusche at al., 2003). […] Thus, isonicotinamide increases the activity of Sir2 in vivo at all three types of silent loci.

[8] = 125 μM [carbonyl-14C]nicotinamide, increasing isonicotinamide

T2 sequence (P06700 whole entry): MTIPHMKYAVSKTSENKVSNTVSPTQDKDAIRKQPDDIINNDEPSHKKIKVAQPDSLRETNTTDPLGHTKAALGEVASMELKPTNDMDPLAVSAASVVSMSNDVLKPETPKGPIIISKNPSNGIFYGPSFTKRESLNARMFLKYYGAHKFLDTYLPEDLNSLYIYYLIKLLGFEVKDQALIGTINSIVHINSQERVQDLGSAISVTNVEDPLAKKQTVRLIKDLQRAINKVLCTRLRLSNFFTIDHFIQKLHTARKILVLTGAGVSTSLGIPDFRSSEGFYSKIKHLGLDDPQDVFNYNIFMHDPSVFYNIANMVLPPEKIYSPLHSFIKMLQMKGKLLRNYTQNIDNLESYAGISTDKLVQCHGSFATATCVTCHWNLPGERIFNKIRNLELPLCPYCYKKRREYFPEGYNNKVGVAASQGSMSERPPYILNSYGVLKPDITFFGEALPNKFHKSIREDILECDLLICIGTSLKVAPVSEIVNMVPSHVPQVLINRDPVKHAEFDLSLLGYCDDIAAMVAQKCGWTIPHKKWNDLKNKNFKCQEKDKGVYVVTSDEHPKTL
T3 sequence (P06700 whole entry): as above

Structure (SMILES): NC(=O)c1ccncc1 [Isonicotinamide]
- inhibition at 5000 µM [1]: 4%
- increase of deacetylation activity [2, 8]: ≤ 45%
- effect on rates of deacetylation ([2]; isonicotinamide to 100 mM, absence of nicotinamide): do not substantially affect rates of deacetylation
- effect on base exchange [3, 8]: Base exchange is inhibited
- Ki ([3]; read-out: Ki for isonicotinamide): 60 mM
- Sir2 activity at HML ([4]; HML::URA3 strains UCC3515 and UCC4574, FOA-containing medium, data not shown): increased Sir2 activity at HML
- growth phenotype of isogenic sir2Δ strain ([4]; HMR::TRP1, Trp− medium): Neither compound altered the growth phenotype
- reduction in growth on Trp− medium ([4]; HMR::TRP1, pnc1Δ strain, 25 mM isonicotinamide): 10^3 fold
- increase in colony growth on FOA-containing medium ([5]; TEL-VIIL-URA3, DOT1 strain UCC4562, 25 mM isonicotinamide): ~10 fold
- enhanced silencing of telomeric reporter (growth on FOA) ([5]; TEL-VIIL-URA3, dot1Δ strain UCC4554, 25 mM isonicotinamide): > 10^3 fold
- growth phenotype on FOA medium ([5]; TEL-VIIL-URA3, 25 mM isonicotinamide added to medium with 5 mM nicotinamide): intermediate growth phenotype
- increase in colony growth on FOA-containing medium ([5]; TEL-VR-URA3, pnc1Δ strain, 25 mM isonicotinamide): > 10^4 fold
- colony survival on non-selective medium ([5]; YPD control medium, 25 mM isonicotinamide): no effect
- silencing of ADE2 integrated at TEL-VR ([5]; data not shown): increased
- effect on telomeric reporter gene ([5]; npt1Δ strain, 25 mM isonicotinamide): enhances the expression of a telomeric reporter gene
- inhibition at 42000 µM [6]: 40%
- silencing at the rDNA locus (resistance to FOA) [7]: increases silencing at the rDNA locus
